In brackets after ≈: the same amount, converted by molar mass.
What was measured:
KB = experiment: Cytotoxicity against human KB cells; format: functional; conditions: read-out: ED50 (the source's name)
P388 = experiment: Antileukemic activity against mouse P388 cells […] in BDF1 mouse at 8 mg/kg; format: functional

Structure (SMILES)	EC50 (KB) [µg/mL]	T/C (P388) [%]
CC(C)=C1C(=O)O[C@@H]2C[C@@H](C)[C@]3(O)C=CC(=O)[C@@H]3C[C@H]12 [MICROHELENIN E]	1.38 (≈ 4.99 µM)	166
CC(C)=C1C(=O)O[C@@H]2C[C@@H](C)[C@@H]3C=CC(=O)[C@]3(O)C[C@H]12 [MICROHELENIN F]	11 (≈ 39.8 µM)	116
